Source: publication PMC11233932, “Identification of an alternative ligand‐binding pocket in peroxisome proliferator‐activated receptor gamma and its correlated selective agonist for promoting beige adipocyte differentiation” (MedComm, 2024)

Target: T1, peroxisome proliferator-activated receptor gamma (PPARγ) (Mus musculus, UniProt P37238)
T1 construct: gene Pparg; LBD, GFP fusion overexpressed in 293T cells
T1 sequence (P37238 238-505 limits assumed): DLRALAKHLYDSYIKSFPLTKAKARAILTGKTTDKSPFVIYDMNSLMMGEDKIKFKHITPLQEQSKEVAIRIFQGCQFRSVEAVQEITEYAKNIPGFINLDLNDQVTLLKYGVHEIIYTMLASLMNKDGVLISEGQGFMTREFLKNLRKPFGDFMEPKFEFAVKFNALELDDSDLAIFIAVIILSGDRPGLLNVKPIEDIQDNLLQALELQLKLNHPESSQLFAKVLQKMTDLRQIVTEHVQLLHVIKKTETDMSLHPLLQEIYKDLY
Experiment: microscale thermophoresis with GFP-PPARγ LBD in cell lysate; supported by luciferase reporter (partial agonist)
Type: binding

C[C@H]1O[C@@H](O[C@H]2CC[C@@]3(C)[C@@H](CC[C@]4(C)[C@@H]3C=C[C@]35OC[C@@]6(CCC(C)(C)C[C@H]63)[C@@H](O)C[C@]54C)[C@]2(C)CO)[C@H](O)[C@@H](O[C@@H]2O[C@H](CO)[C@@H](O)[C@H](O)[C@H]2O)[C@H]1O [NJT-2, saikosaponin A]
Kd: 5.07 µM
